Experimental data reported in the supplement of paper PMC10307832.

Compound: CCN(CC)CCNC(=O)c1c(C)[nH]c(/C=C2\C(=O)Nc3ccc(F)cc32)c1C [Sunitinib] + CC(C)C[C@H](NC(=O)[C@H](Cc1ccccc1)NC(=O)c1cnccn1)B(O)O [Bortezomib] (partner 0.002 µM)
Test: relative viability (nuclei count vs DMSO), 5 days (fraction); higher = more cells survive
In short: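 Lung cancer cell lines, seeded in 1536-well plates, were treated the following day by pin tool with a single drug or with five library-drug doses (not always all listed) in √10 steps on top of a fixed anchor-drug dose. Cells were fixed and nuclei stained in one step after 5 days, and nuclei were counted. Relative viability is the nuclei count for treated wells divided by that for vehicle wells, reported as medians of duplicate plates.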

| Cell Line | relative viability (first compound 0.02 µM) | relative viability (first compound 0.06325 µM) | relative viability (first compound 0.2 µM) | relative viability (first compound 0.6325 µM) | relative viability (first compound 2 µM) |
| --- | --- | --- | --- | --- | --- |
| HARA | 1 | 1.17 | 1.32 | 1.22 | 1.14 |
| H3255 | 0.817 | – | 0.827 | 0.995 | 0.822 |
| A-427 | – | 0.987 | 0.976 | 0.986 | 0.936 |
| EMC-BAC-2 | 1.06 | 1.14 | 1.26 | 1.05 | 1.12 |
| NCI-H3122 | 1.01 | 1.01 | – | 0.985 | 0.985 |
| EPLC-272H | 0.648 | 1.17 | 0.915 | 1.05 | 0.851 |
| LU99A | 1 | 1.13 | 1.15 | 1.35 | 1.12 |
| LXF-289 | 0.981 | 0.958 | 1.06 | 1.04 | 1.01 |
| NCI-H650 | 0.884 | 0.819 | 0.916 | 1.03 | 1.09 |
| 201T | 1.08 | 1.09 | 1.13 | 1.09 | 1.08 |
| NCI-H460 | 1.18 | 1.23 | 1.5 | 1.35 | 1.09 |
| NCI-H1755 | 0.992 | 1.02 | 1.04 | 0.93 | – |
| NCI-H1975 | 0.401 | 0.448 | 0.401 | 0.438 | 0.406 |
| NCI-H23 | 0.871 | 1.45 | 1.17 | 1.44 | 0.945 |
| NCI-H2405 | 0.997 | 0.924 | 1.09 | 1.08 | 1 |
| SK-LU-1 | 0.959 | 1.26 | 1.38 | 1.36 | 0.982 |
| PC-3 [JPC-3] | 0.836 | 0.88 | 0.893 | 0.869 | 0.732 |

| Cell Line | relative viability (first compound 0.02 µM) | relative viability (first compound 0.06325 µM) | relative viability (first compound 0.2 µM) | relative viability (first compound 0.6325 µM) | relative viability (first compound 2 µM) |
| --- | --- | --- | --- | --- | --- |
| NCI-H727 | 0.89 | 1.07 | 0.805 | 1.05 | 0.817 |
| EKVX | 1.07 | 1.04 | 1.18 | 1.06 | 1.09 |
| RERF-LC-KJ | 0.994 | – | 1.26 | 1.03 | 1.09 |
| NCI-H1355 | 1.2 | 1.31 | 1.28 | 1.2 | 1.27 |
| ChaGo-K-1 | 1.04 | 1.03 | 1.03 | 0.977 | 1.05 |
| NCI-H2085 | 1 | 1.05 | – | 1.16 | 1.07 |
| SW 1573 | 0.944 | 1.11 | 1.2 | 1.22 | 1 |
| NCI-H1563 | 0.752 | 0.918 | 0.897 | 0.906 | 0.771 |
| LCLC-97TM1 | 0.653 | 0.967 | 0.713 | 0.774 | 0.757 |
| NCI-H647 | 0.936 | 1.29 | 1.4 | 1.03 | 0.923 |
| NCI-H1915 | – | 0.994 | 1 | 1.05 | 1.02 |
| CAL-12T | 1.04 | 1.06 | 1.07 | 1.21 | 1.05 |
| LCLC-103H | 1.11 | 1.19 | 1.2 | 1.04 | 1.18 |
| Calu-6 | 0.979 | – | 1.08 | 1.2 | 1.09 |
| NCI-H1666 | 0.867 | – | 1.01 | 0.839 | 0.86 |
| NCI-H1651 | – | 1.06 | 0.987 | 0.884 | 0.968 |
